Assays:
[1] = tested on: Winter oilseed rape (cv. Pronto); test: Shoot elongation in winter oilseed rape (Example 1); type: in vivo; details: treated Oct. 19, 2000; for Stage A1: Reduction / Stage A1: rel. length: rating A1 Oct. 26, 2000; for Stage A2: Reduction / Stage A2: rel. length: rating A2 Nov. 16, 2000
Procedure: The tank mixes employed in Example 1 are prepared by stirring an emulsion concentrate comprising 90 g/l metconazole, of the formula (II), and an aqueous concentrate comprising 600 g/l mepiquat chloride (MQC) using a magnetic stirrer.
Winter oilseed rape (cv. Pronto) was sown in autumn (Sep. 13, 2000) and treated approximately one month later (Oct. 19, 2000) in accordance with the information given in Table 1. A few weeks later, the shoot elongation and the root development were assessed (A1 on Oct. 26, 2000 and A2 on Nov. 16, 2000).

[2] = tested on: Winter oilseed rape (cv. Pronto); test: Root growth and morphological parameters in winter oilseed rape (Example 2); type: in vivo; details: based on untreated control; for SPAD: green coloration
Procedure: The formulations employed in Example 2 are prepared by introducing an emulsion concentrate comprising 60 g/l metconazole, of the formula (II), and/or an aqueous concentrate comprising 460 g/l mepiquat chloride in suitable amounts. The combination of mepiquat chloride and metconazole is employed in the form of an aqueous SL readymix comprising 21 g/l metconazole, 300 g/l mepiquat chloride and 610 g/l further formulation auxiliaries.
Winter oilseed rape (cv. Pronto) was sown in autumn (Sep. 13, 2000) and treated approximately one month later (Oct. 19, 2000) in accordance with the information given in Table 2. Some of the plants were harvested in autumn on Dec. 07, 2000, while others were harvested in spring on Apr. 03, 2001 and the following morphological parameters were analyzed: plant length; shoot fresh and dry weight (drying: 24 h at 105° C.); total area of all leaves; SPAP (relative units of green coloration determined using a Minolta chlorophyll-measuring meter SPAP 502); root fresh and dry weight (drying: 24 h at 105° C.); storage root fresh weight; length, surface area and volume of the hair roots, and number of root tips (scanning and WinRhizo determination). The results, each of which is based on the untreated control, are compiled in Table 2, the values for the plants harvested in autumn being shown first and the values for the plants harvested in spring being shown second.

[3] = 400 g/ha, autumn harvest Dec. 07, 2000
[4] = 400 g/ha, spring harvest Apr. 03, 2001
[5] = 28 g/ha, autumn harvest Dec. 07, 2000
[6] = 28 g/ha, spring harvest Apr. 03, 2001
[7] = 84 g/ha, autumn harvest Dec. 07, 2000
[8] = 84 g/ha, spring harvest Apr. 03, 2001

In the case of `C[N+]1(C)CCCCC1.[Cl-]` [MQC, N,N-dimethylpiperidinium chloride], the “Stage A1: Reduction” value ([1]; 400 g/ha) is reported as 0%, the “Stage A1: rel. length” value ([1]; 400 g/ha) is reported as 100 and the “Stage A2: Reduction” value ([1]; 400 g/ha) is reported as 4%. For the same molecule, the “Stage A2: rel. length” value ([1]; 400 g/ha) was 96, the “Hair root surface area” value [2, 3] was 131% and the Hair root volume [2, 3] was 154%. For the same molecule, the Leaf surface area [2, 3] was 116%, the “Number of root tips” value [2, 3] was 94% and the Plant height [2, 3] was 96%. It also gave a Root hair length [2, 3] of 112%, a Shoot dry weight [2, 3] of 112% and a Shoot fresh weight [2, 3] of 111%. The “Storage root fresh weight” value [2, 3] was 118%, the “Total root dry weight” value [2, 3] was 120% and the “Total root fresh weight” value [2, 3] was 123%. For the same molecule, the SPAD [2, 3] was 102; 102, the “Hair root surface area” value [2, 4] was 136% and the Hair root volume [2, 4] was 157%. The Leaf surface area [2, 4] was 103%, the “Number of root tips” value [2, 4] was 123% and the Plant height [2, 4] was 93%. The Root hair length [2, 4] was 123%, the Shoot dry weight [2, 4] was 99% and the Shoot fresh weight [2, 4] was 114%. For the same molecule, the “Storage root fresh weight” value [2, 4] was 94%, the “Total root dry weight” value [2, 4] was 107% and the “Total root fresh weight” value [2, 4] was 112%. For the same molecule, the SPAD [2, 4] was 102; 102.
For `CC1(C)CCC(Cc2ccc(Cl)cc2)C1(O)Cn1cncn1` (centres unmarked) [Metconazole, metconazole], the “Stage A1: Reduction” value ([1]; 21 g/ha) was 19%, the “Stage A1: rel. length” value ([1]; 21 g/ha) was 81 and the “Stage A2: Reduction” value ([1]; 21 g/ha) was 39%. For the same molecule, the “Stage A2: rel. length” value ([1]; 21 g/ha) was 61, the “Hair root surface area” value [2, 5] was 116% and the Hair root volume [2, 5] was 125%. For the same molecule, the Leaf surface area [2, 5] was 84%, the “Number of root tips” value [2, 5] was 93% and the Plant height [2, 5] was 61%. It also gave a Root hair length [2, 5] of 107%, a Shoot dry weight [2, 5] of 85% and a Shoot fresh weight [2, 5] of 82%. The “Storage root fresh weight” value [2, 5] was 94%, the “Total root dry weight” value [2, 5] was 94% and the “Total root fresh weight” value [2, 5] was 92%. The SPAD [2, 5] was 107, the “Hair root surface area” value [2, 6] was 134% and the Hair root volume [2, 6] was 145%. The Leaf surface area [2, 6] was 106%, the “Number of root tips” value [2, 6] was 112% and the Plant height [2, 6] was 91%. It also gave a Root hair length [2, 6] of 126%, a Shoot dry weight [2, 6] of 112% and a Shoot fresh weight [2, 6] of 122%. For the same molecule, the “Storage root fresh weight” value [2, 6] was 115%, the “Total root dry weight” value [2, 6] was 128% and the “Total root fresh weight” value [2, 6] was 115%. For the same molecule, the SPAD [2, 6] was 103, the “Hair root surface area” value [2, 7] was 97% and the Hair root volume [2, 7] was 101%. For the same molecule, the Leaf surface area [2, 7] was 61%, the “Number of root tips” value [2, 7] was 87% and the Plant height [2, 7] was 46%. The Root hair length [2, 7] was 94%, the Shoot dry weight [2, 7] was 67% and the Shoot fresh weight [2, 7] was 57%. For the same molecule, the “Storage root fresh weight” value [2, 7] was 74%, the “Total root dry weight” value [2, 7] was 75% and the “Total root fresh weight” value [2, 7] was 78%. The SPAD [2, 7] was 116, the “Hair root surface area” value [2, 8] was 148% and the Hair root volume [2, 8] was 183%. The Leaf surface area [2, 8] was 127%, the “Number of root tips” value [2, 8] was 116% and the Plant height [2, 8] was 86%. For the same molecule, the Root hair length [2, 8] was 129%, the Shoot dry weight [2, 8] was 136% and the Shoot fresh weight [2, 8] was 150%. For the same molecule, the “Storage root fresh weight” value [2, 8] was 138%, the “Total root dry weight” value [2, 8] was 161% and the “Total root fresh weight” value [2, 8] was 150%. The SPAD [2, 8] was 104.

— patent publication US7407979B2, “Bioregulatory active ingredient combination” (BASF Aktiengesellschaft, priority 2001, dated 2008)
